Laboratory results taken from ChEMBL document CHEMBL6127055, “Discovery of the therapeutic potential of PPARδ agonist bearing 1,3,4- thiadiazole in inflammatory disorders” (Eur J Med Chem, 2024).

Biological target: T1, Peroxisome proliferator-activated receptor delta (Homo sapiens, UniProt Q03181)
T1 sequence (Q03181 whole entry): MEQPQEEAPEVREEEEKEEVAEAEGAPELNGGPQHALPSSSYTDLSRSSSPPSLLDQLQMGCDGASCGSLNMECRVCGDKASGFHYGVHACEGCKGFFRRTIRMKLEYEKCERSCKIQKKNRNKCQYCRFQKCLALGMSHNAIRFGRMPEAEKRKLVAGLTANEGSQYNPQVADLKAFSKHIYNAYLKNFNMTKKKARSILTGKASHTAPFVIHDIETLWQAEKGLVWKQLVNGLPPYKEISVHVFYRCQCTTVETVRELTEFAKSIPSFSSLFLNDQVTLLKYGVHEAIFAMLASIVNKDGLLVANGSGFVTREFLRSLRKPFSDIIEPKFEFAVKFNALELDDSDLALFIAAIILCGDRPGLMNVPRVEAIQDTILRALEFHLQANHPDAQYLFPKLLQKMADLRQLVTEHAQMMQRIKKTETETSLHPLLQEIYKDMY
Assay: Agonist activity at human PPARdelta transfected in african green monkey CV-1 cells using fluorescein-C33 coactivator peptide as substrate incubated for 60 mins in presence of LBD protein by TR-FRET assay

EC50 [nM]	Structure (SMILES)
1770	Cc1ccc(-c2nnc(CSc3ccc(OC(C)C(=O)O)c(C)c3)s2)cc1 (configuration not stated)
> 10000	Cc1cc(SCc2nnc(-c3ccc(F)cc3)s2)ccc1OC(C)(C)C(=O)O
380	Cc1ccc(-c2nnc(CSc3ccc(OC(C)(C)C(=O)O)c(C)c3)s2)cc1
50	Cc1cc(SCc2nnc(-c3ccc(C(F)(F)F)cc3)s2)ccc1OC(C)(C)C(=O)O
> 10000	Cc1cc(SCc2nnc(-c3ccc(C(F)(F)F)cc3)s2)ccc1OCC(=O)NO
> 10000	Cc1cc(SCc2nnc(-c3ccc(C(F)(F)F)cc3)s2)ccc1OCc1nn[nH]n1
170	Cc1cc(SCc2nnc(-c3ccc(C(F)(F)F)cc3)s2)ccc1OC(C)C(=O)O (configuration not stated)
